Results taken from paper PMC6005765 (Bioorganic & medicinal chemistry letters, 2018).
Starred links: 1 amine or outer side, 2 acyl side, 3 side chain; linkers in the order of their positions; H or OH if unused. Non-standard residues stand in square brackets, D forms with d. Residues, ends and D or L forms follow the SMILES beside them. No end group written: not given here. Phe(2-(3-thienyl)) = O=C([C@H](Cc1ccccc1-c1ccsc1)N[*:1])[*:2]; Phe(2-Ph) = N[C@@H](Cc1ccccc1-c1ccccc1)C(=O)O; Dmt = Cc1cc(O)cc(C)c1C[C@H](N)C(=O)O

What was measured:
rats = test: Tail-flick test on rats after intrathecal administration; type: in vivo, rat
μ opioid receptor (MOP) = μ opioid receptor (MOP) (Homo sapiens, UniProt P35372); type: binding; details: for Selectivity IC50δ/IC50μ: ratio DOP IC50 / MOP IC50
δ opioid receptor (DOP) = δ opioid receptor (DOP) (Homo sapiens, UniProt P41143); type: binding
[1] = test system: guinea pig ileum (GPI), MOP; details: read-out: IC50 (GPI); agonist potency
MOP = MOP (Homo sapiens, UniProt P35372); test: EPAC cAMP BRET-based biosensor assay, MOP; type: cell-based
DOP = DOP (Homo sapiens, UniProt P41143); test: EPAC cAMP BRET-based biosensor assay, DOP; type: cell-based
δ opioid receptor [2] = target: δ opioid receptor (UniProt P41143)
μ opioid receptor [3] = target: μ opioid receptor (UniProt P35372)
μ opioid receptor [4] = target: μ opioid receptor (UniProt P35372); remark: listed apart in the source
δ opioid receptor [5] = target: δ opioid receptor (UniProt P41143); test: radioligand binding
μ opioid receptor [6] = target: μ opioid receptor (UniProt P35372); test: radioligand binding
δ opioid receptor [7] = target: δ opioid receptor (UniProt P41143); remark: listed apart in the source

Sequence of MOP (P35372 whole entry): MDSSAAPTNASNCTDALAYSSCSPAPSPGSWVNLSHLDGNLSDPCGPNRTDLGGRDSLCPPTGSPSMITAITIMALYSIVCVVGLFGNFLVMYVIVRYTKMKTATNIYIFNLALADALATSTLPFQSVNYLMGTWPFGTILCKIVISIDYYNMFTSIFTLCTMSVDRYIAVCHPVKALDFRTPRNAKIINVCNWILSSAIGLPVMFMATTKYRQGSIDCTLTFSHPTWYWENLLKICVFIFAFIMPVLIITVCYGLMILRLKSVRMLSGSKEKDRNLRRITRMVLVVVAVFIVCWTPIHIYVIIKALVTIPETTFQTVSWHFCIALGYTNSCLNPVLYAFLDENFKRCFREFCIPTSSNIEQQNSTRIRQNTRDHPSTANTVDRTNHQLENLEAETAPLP
Sequence of μ opioid receptor (MOP) (P35372 whole entry, species assumed): as the sequence (P35372 whole entry) above

Molecule	Duration of analgesic action on thermal nociception (rats)	IC50 (μ opioid receptor (MOP))	Selectivity IC50δ/IC50μ (μ opioid receptor (MOP))	IC50 (δ opioid receptor (DOP))	IC50 [1]	EC50 (MOP)	EC50 (DOP)	further results
CC(C)=Cc1ccccc1C[C@H](NC(=O)[C@@H](CCCNC(=N)N)NC(=O)[C@@H](N)Cc1c(C)cc(O)cc1C)C(=O)NCC(N)=O [Compound 14]	exceeding 60 min	–	–	–	–	–	–	–
Cc1cc(O)cc(C)c1C[C@H](N)C(=O)N[C@H](CCCNC(=N)N)C(=O)N[C@@H](Cc1ccccc1-c1ccc(Cl)cc1)C(=O)NCC(N)=O [Compound 13, Dmt-D-Arg-Phe(2-(4-Cl-phenyl))-Gly-NH2]	–	0.35 ± 0.06 nM	989	346 ± 10 nM	2.39 ± 0.09 nM	–	–	–
COc1ccc(-c2ccccc2C[C@H](NC(=O)[C@@H](CCCNC(=N)N)NC(=O)[C@@H](N)Cc2c(C)cc(O)cc2C)C(=O)NCC(N)=O)cc1 [Compound 10, Dmt-D-Arg-Phe(2-(4-MeO-phenyl))-Gly-NH2]	–	0.47 ± 0.24 nM	149	70.2 ± 27.2 nM	0.901 ± 0.224 nM	–	–	–
Cc1cc(O)cc(C)c1C[C@H](N)C(=O)N[C@H](CCCNC(=N)N)C(=O)N[C@@H](Cc1ccccc1)C(=O)NCC(N)=O [Compound 19, Dmt-D-Arg-Phe-Gly-NH2] (H-[Dmt][dR]FG-NH2)	exceeding 60 min	0.1 ± 0.06 nM	140	14 ± 2.7 nM	2.26 ± 0.37 nM	0.008 ± 0.002 nM	1.13 ± 0.2 nM	Fold increase in MOP affinity compared to DAMGO (μ opioid receptor (MOP)): 10 fold; Effectiveness in reversing nociceptive behavior relative to DAMGO (rats): 10 times
Cc1cc(O)cc(C)c1C[C@H](N)C(=O)N[C@H](C)C(=O)N[C@@H](Cc1ccccc1-c1ccccc1)C(=O)NCC(N)=O [Compound 15, Dmt-D-Ala-Phe(2-phenyl)-Gly-NH2] (H-[Dmt][dA][Phe(2-Ph)]G-NH2)	exceeding 60 min	–	–	–	–	–	–	–
Cc1cc(O)cc(C)c1C[C@H](N)C(=O)N[C@H](C)C(=O)N[C@@H](Cc1ccccc1)C(=O)NCC(N)=O [Compound 20, Dmt-D-Ala-Phe-Gly-NH2] (H-[Dmt][dA]FG-NH2)	exceeding 60 min	0.14 ± 0.05 nM	161	22.6 ± 4.6 nM	1.5 ± 0.12 nM	0.012 ± 0.0007 nM	2.4 ± 1 nM	Fold increase in MOP affinity compared to DAMGO (μ opioid receptor (MOP)): 10 fold; Effectiveness in reversing nociceptive behavior relative to DAMGO (rats): 10 times
Cc1cc(O)cc(C)c1C[C@H](N)C(=O)N[C@H](CCCNC(=N)N)C(=O)N[C@@H](Cc1ccccc1-c1ccc(C(F)(F)F)cc1)C(=O)NCC(N)=O [Compound 11, Dmt-D-Arg-Phe(2-(4-CF3-phenyl))-Gly-NH2]	–	0.07 ± 0.09 nM	560	39.2 ± 17 nM	1.26 ± 0.17 nM	0.12 ± 0.05 nM	26.8 ± 6 nM	–
C=Cc1ccccc1C[C@H](NC(=O)[C@@H](C)N(C)C(=O)[C@@H](N)Cc1c(C)cc(O)cc1C)C(=O)NCC(N)=O [Compound 18, Dmt-N-Me-D-Ala-Phe(2-vinyl)-Gly-NH2]	–	0.36 ± 0.09 nM	165	59.4 ± 0.8 nM	0.641 ± 0.045 nM	0.003 ± 0.004 nM	4.4 ± 2 nM	–
[Dmt][dA][Phe(2-(3-thienyl))]G-NH2 (N-terminus assumed; SMILES Cc1cc(O)cc(C)c1C[C@H](N)C(=O)N[C@H](C)C(=O)N[C@@H](Cc1ccccc1-c1ccsc1)C(=O)NCC(N)=O) [Dmt-D-Ala-Phe(2-(3-thienyl))-Gly-NH2]	–	–	–	–	–	–	–	IC50 in the mouse vas deferens (MVD) assay (δ opioid receptor [2]): 2.16 nM; IC50 in the guinea pig ileum (GPI) assay (μ opioid receptor [3]): 1.27 nM; EPAC MOP EC50 (EPAC cAMP BRET-based biosensor assay) (μ opioid receptor [4]): 34.8 nM; IC50 (δ opioid receptor [5]): 687 nM; IC50 (μ opioid receptor [6]): 240 nM
[Dmt][dA]FG-NH2 (N-terminus assumed; SMILES Cc1cc(O)cc(C)c1C[C@H](N)C(=O)N[C@H](C)C(=O)N[C@@H](Cc1ccccc1)C(=O)NCC(N)=O) [Dmt-D-Ala-Phe-Gly-NH2]	–	–	–	–	–	–	–	IC50 in the mouse vas deferens (MVD) assay (δ opioid receptor [2]): 1.15 nM; IC50 in the guinea pig ileum (GPI) assay (μ opioid receptor [3]): 1.5 nM; EPAC DOP EC50 (EPAC cAMP BRET-based biosensor assay) (δ opioid receptor [7]): 2.4 nM; EPAC MOP EC50 (EPAC cAMP BRET-based biosensor assay) (μ opioid receptor [4]): 0.012 nM
